{"source": "patent US12396996B2", "about": "“Compounds, pharmaceutical compositions, and methods of their use in reversing cancer chemoresistance” (priority 2019, dated 2025)", "key": {"[1]": {"system": "HMLE-SNAIL cells", "experiment": "CD44/CD24 FACS analysis", "assay_type": "cell-based, human", "details": "1 μM for two days", "text": "The y- and the x-axes represent fluorescence intensity of CD24 and CD44 cell surface markers, respectively. In this cell line, high CD44 and low CD24 expression indicate TIC cell populations. Cells that express CD24 are considered non-TICs.\nCell surface markers can be used to identify mesenchymal, TIC cells. In breast cancer, the presence of CD44 and absence of CD24 markers are indicators of TICs. Specifically, cells expressing high levels of CD44 and no expression of CD24 are considered TICs, whereas cells expressing CD24 are considered non-TICs. HMLE cells display these cell surface markers upon overexpression of SNAIL or TWIST, which turns on the EMT transcriptional program and promotes a mesenchymal TIC state in cancer cells. To determine whether chaetocin treatment alters the mesenchymal phenotype of TICs, these markers were used to track the fate of HMLE-SNAIL cells following chaetocin treatment (1 μM) using fluorescence-activated cell sorting (FACS) analysis. FIGS. 3A-3B show a heat map plot of FACS results under control conditions (FIG. 3A) and following chaetocin treatment (FIG. 3B). The y-axis corresponds to CD24 fluorescence intensity and the x-axis corresponds to CD44 fluorescence intensity."}, "[2]": {"system": "HMLE-TWIST cells", "experiment": "E-cadherin (E-cad) level after chaetocin pulse", "assay_type": "cell-based, human", "details": "80 nM or 200 nM for 15 hours, then 1, 2, 4 days chaetocin-free", "protocol": "Levels of an epithelial marker, E-cadherin (E-cad) were assayed at 15H, 1 D, 2D, and 4D after chaetocin treatment and the fraction of E-cad positive cells was quantified.\nTo molecularly test whether chaetocin treatment converts mesenchymal cells into epithelial cells, HMLE-TWIST cells were treated with a pulse of chaetocin for 15 hours (15H), washed and then incubated in chaetocin-free media for 1 day (1D), 2 days (2D), and 4 days (4D). Levels of the ubiquitous epithelial marker E-cadherin (E-cad) was assayed using Western blots throughout the experiment."}, "[3]": {"system": "800 cancer cell lines", "experiment": "Cell viability screen with GSEA of mesenchymal gene signature", "assay_type": "cell-based", "details": "0.005-1.28 μM, viability several days after treatment", "method": "FIGS. 1D-1E are a series of scatter plots showing the results of a Gene Set Enrichment Analysis (GSEA) screen of 800 cancer cell lines for sensitivity to chaetocin applied at 9 different concentrations (0.005 μM, 0.01 μM, 0.02 μM, 0.04 μM, 0.08 μM, 0.16 μM, 0.32 μM, 0.64 μM, and 1.28 μM) in culture. Cell viability was measured several days after chaetocin treatment. FIG. 1D is a scatter plot showing the chaetocin sensitivity of all tested cells lines: mesenchymal gene expression signature (SNAIL-induced early-repressed gene set) (Y-axis) is plotted against area under the curve (AUC) calculated by measuring percent cell death caused by increasing doses of chaetocin (X-axis). Mesenchymal gene expression signature (SNAIL-induced early-repressed gene set) used in the Y-axis was based on the Javaid et al 2013 paper.\nTo determine whether sensitivity of cancer cells to chaetocin correlates with mesenchymal cell phenotype, the sensitivity or resistance of 800 cancer cell lines to chaetocin was assayed by the group of Cyril Benes treating each cell line with chaetocin at concentrations of 0.005 μM, 0.01 μM, 0.02 μM, 0.04 μM, 0.08 μM, 0.16 μM, 0.32 μM, 0.64 μM, and 1.28 μM. Cell viability was measured several days following treatment. […]"}, "[4]": {"system": "MDA-MB-468 cells", "experiment": "Cleaved caspase 3 apoptosis assay", "assay_type": "cell-based, human", "details": "chaetocin 0, 400, 800 nM; compared with MDA-MB-231", "text": "(§1) FIGS. 1A-1K are a series of figures showing sensitivity of tumor initiating cell (TICs)-rich, chemoresistant breast cancer and clear cell renal cell carcinoma cell lines to chaetocin compared to non-cancerous epithelial or isogenic cancerous epithelial, TIC-deplete, chemosensitive breast cancer and clear cell renal cell carcinoma cell lines. […] The data presented in FIGS. 1A and 1B indicate that at lower doses especially chaetocin specifically induces apoptosis of mesenchymal, TIC-rich, chemotherapy-resistant breast cancer cell lines compared to the epithelial, non-TIC-rich and chemotherapy-responsive cell-line.\n(§2) To determine whether constitutive heterochromatin proteins are similarly required for the development of […] in cancer, the efficacy of a heterochromatin inhibitor, which selectively represses the activities of two proteins critical for constitutive heterochromatin formation, namely suppressor of variegation 3-9 homolog 1 (Suv39H1) and suppressor of variegation 3-9 homolog 2 (Suv39H2), was tested in human cells, using 2-D, spheroid and tumorsphere assays. To determine the sensitivity of well-established mesenchymal and epithelial cancer cells to a heterochromatin inhibitor, chaetocin, the degree of apoptotic cell death was measured in two cancer cell lines, MDA-MB-231 and MDA-MB-468. […]"}, "[5]": {"system": "MDA-MB-231 cells", "experiment": "Cleaved caspase 3 apoptosis assay", "assay_type": "cell-based, human", "details": "chaetocin 0, 100, 200 nM; compared with MDA-MB-468", "text": "as §1, §2"}}}
{"compound": "CN1C(=O)[C@@]23C[C@]4([C@]56C[C@@]78SS[C@](CO)(C(=O)N7[C@H]5Nc5ccccc56)N(C)C8=O)c5ccccc5N[C@@H]4N2C(=O)[C@@]1(CO)SS3", "note": "[chaetocin]", "values": [{"measurement": "CD44/CD24 phenotype (TIC to non-TIC)", "setting": "[1]", "result": "reprograms TICs into a non-TIC phenotype"}, {"measurement": "E-cadherin level (mesenchymal to epithelial conversion)", "setting": "[2]", "result": "stable epigenetic change in cell phenotype converting mesenchymal cancer cells into epithelial ones"}, {"measurement": "sensitivity (AUC of percent cell death) versus mesenchymal gene signature", "setting": "[3]", "result": "cells with mesenchymal transcriptional signature are sensitive to chaetocin"}, {"measurement": "apoptosis (cleaved caspase 3) sensitivity", "setting": "[4]", "result": "increased sensitivity to chaetocin as compared to MDA-MB-231 cells"}, {"measurement": "apoptosis (cleaved caspase 3) sensitivity", "setting": "[5]", "result": "more sensitive to chaetocin compared to the non-TIC, MDA-MB-468 cells"}]}
